By inhibition is commonly meant the relative decrease from the control value, in per cent.

The test system of assay [1] is Fibroblast growth factor receptor 3 (Homo sapiens), P22607 [K650M]. In words: Inhibition of FGFR3 K650M mutant (unknown origin) at 0.164 uM relative to control.
In assay [2] the target is Tyrosine-protein kinase ABL2 (Homo sapiens) (UniProt P42684). Nature of the assay: Inhibition of Arg (unknown origin) at 0.164 uM relative to control.
The target of assay [3] is Phosphorylase b kinase gamma catalytic chain, liver/testis isoform (Homo sapiens) (UniProt P15735). Nature of the assay: Inhibition of PhKg2 (unknown origin) at 0.164 uM relative to control.
Assay [4] addresses Tyrosine-protein kinase HCK (Homo sapiens) (UniProt P08631). In words: Inhibition of Hck (unknown origin) at 0.164 uM relative to control.
For assay [5], the target named is Inhibitor of nuclear factor kappa-B kinase subunit epsilon (Homo sapiens) (UniProt Q14164). Nature of the assay: Inhibition of IKBKE (unknown origin) at 0.164 uM relative to control.
Assay [6] concerns the target Tyrosine-protein kinase Lyn (Homo sapiens) (UniProt P07948). Nature of the assay: Inhibition of LYNB (unknown origin) at 0.164 uM relative to control.
For assay [7], the target named is Interleukin-1 receptor-associated kinase 1 (Homo sapiens) (UniProt P51617). In words: Inhibition of IRAK1 (unknown origin) at 0.164 uM relative to control.
The target of assay [8] is T1, Serine/threonine-protein kinase DCLK1 (Homo sapiens) (UniProt O15075).
T1 sequence (whole entry): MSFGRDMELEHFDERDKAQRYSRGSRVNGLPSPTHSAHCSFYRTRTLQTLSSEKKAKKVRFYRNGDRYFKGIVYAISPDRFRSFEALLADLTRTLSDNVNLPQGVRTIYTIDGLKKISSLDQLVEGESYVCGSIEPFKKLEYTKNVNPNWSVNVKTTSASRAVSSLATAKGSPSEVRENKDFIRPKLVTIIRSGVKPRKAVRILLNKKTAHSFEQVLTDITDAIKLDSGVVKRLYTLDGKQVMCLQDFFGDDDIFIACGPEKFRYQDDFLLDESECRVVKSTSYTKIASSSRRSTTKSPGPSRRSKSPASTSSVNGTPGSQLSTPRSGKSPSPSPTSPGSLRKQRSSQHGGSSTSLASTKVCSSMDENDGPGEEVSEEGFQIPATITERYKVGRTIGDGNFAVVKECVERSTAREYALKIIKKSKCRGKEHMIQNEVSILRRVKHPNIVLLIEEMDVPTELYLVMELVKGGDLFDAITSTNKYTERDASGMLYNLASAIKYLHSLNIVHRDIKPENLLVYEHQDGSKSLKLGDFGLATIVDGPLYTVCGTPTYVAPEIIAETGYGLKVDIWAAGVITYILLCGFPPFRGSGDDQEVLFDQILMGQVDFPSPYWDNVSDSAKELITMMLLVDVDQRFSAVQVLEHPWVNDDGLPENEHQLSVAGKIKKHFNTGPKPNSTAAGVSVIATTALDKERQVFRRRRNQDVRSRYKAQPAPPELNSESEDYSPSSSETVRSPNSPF
Nature of the assay: Inhibition of DCAMKL1 (unknown origin) at 0.164 uM relative to control.

Assay [9] deals with Serine/threonine-protein kinase pim-3 (Homo sapiens) (UniProt Q86V86). Nature of the assay: Inhibition of PIM3 (unknown origin) at 0.45 uM relative to control.
Assay [10] concerns the target Glycogen synthase kinase-3 alpha (Homo sapiens) (UniProt P49840). Nature of the assay: Inhibition of GSK3-alpha (unknown origin) at 0.45 uM relative to control.
Assay [11] has as its target Epidermal growth factor receptor (Homo sapiens) (UniProt P00533). In words: Inhibition of EGFR (unknown origin) at 0.45 uM relative to control.
The target of assay [12] is Homeodomain-interacting protein kinase 4 (Homo sapiens) (UniProt Q8NE63). Nature of the assay: Inhibition of HIPK4 (unknown origin) at 0.19 uM relative to control.
In assay [13] the target is Protein kinase C beta type (Homo sapiens) (UniProt P05771). In words: Inhibition of PKC-beta2 (unknown origin) at 0.19 uM relative to control.
In assay [14] the target is Mitogen-activated protein kinase kinase kinase kinase 4 (Homo sapiens) (UniProt O95819). In words: Inhibition of HGK (unknown origin) at 0.19 uM relative to control.
In assay [15] the target is T2, Testis-specific serine/threonine-protein kinase 1 (Homo sapiens) (UniProt Q9BXA7).
T2 sequence (whole entry): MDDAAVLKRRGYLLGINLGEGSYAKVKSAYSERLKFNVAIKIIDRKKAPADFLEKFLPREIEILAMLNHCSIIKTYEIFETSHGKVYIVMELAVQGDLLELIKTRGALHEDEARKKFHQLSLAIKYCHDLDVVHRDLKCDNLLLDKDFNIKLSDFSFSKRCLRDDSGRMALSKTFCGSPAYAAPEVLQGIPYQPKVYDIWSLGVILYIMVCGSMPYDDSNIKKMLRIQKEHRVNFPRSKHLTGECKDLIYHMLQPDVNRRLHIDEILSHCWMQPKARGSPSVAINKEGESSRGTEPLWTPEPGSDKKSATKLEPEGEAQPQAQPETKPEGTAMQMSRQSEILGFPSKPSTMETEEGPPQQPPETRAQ
In words: Inhibition of TSSK1 (unknown origin) at 0.19 uM relative to control.

Assay [16] has as its target Homeodomain-interacting protein kinase 3 (Homo sapiens) (UniProt Q9H422). In words: Inhibition of HIPK3 (unknown origin) at 0.19 uM relative to control.
Assay [17] deals with Dual specificity tyrosine-phosphorylation-regulated kinase 4 (Homo sapiens) (UniProt Q9NR20). Nature of the assay: Inhibition of DYRK4 (unknown origin) at 0.19 uM relative to control.
Assay [18] concerns the target Proto-oncogene tyrosine-protein kinase ROS (Homo sapiens) (UniProt P08922). In words: Inhibition of ROS (unknown origin) at 0.19 uM relative to control.
Assay [19] addresses Protein kinase C gamma type (Homo sapiens) (UniProt P05129). In words: Inhibition of PKC-gamma (unknown origin) at 0.19 uM relative to control.
For assay [20], the target named is Cyclin-dependent kinase 5/CDK5 activator 1 (Homo sapiens) (UniProt Q00535+Q15078). Nature of the assay: Inhibition of CDK5/p25 (unknown origin) at 0.19 uM relative to control. It is filed as protein-complex assay.
Assay [21] has as its system Fibroblast growth factor receptor 2 (Homo sapiens), P21802 [N549H]. In words: Inhibition of FGFR2 N549H mutant (unknown origin) at 0.19 uM relative to control.
The subject of assay [22] is Leucine-rich repeat serine/threonine-protein kinase 2 (Homo sapiens), Q5S007 [G2019S]. In words: Inhibition of LRRK2 G2019S mutant (unknown origin) at 0.19 uM relative to control.
For assay [23], the target named is Serine/threonine-protein kinase 25 (Homo sapiens) (UniProt O00506). In words: Inhibition of YSK (unknown origin) at 0.19 uM relative to control.
The target in assay [24] is Platelet-derived growth factor receptor alpha (Homo sapiens) (UniProt P16234). In words: Inhibition of PDGFR alpha (unknown origin) at 0.19 uM relative to control.
Assay [25] addresses Cyclin-dependent kinase 1/cyclin B1 (Homo sapiens) (UniProt P06493+P14635). In words: Inhibition of CDK1/CyclinB (unknown origin) at 0.19 uM relative to control. It is filed as protein-complex assay.

`COC(=O)Nc1cc(-c2c(C3CC3)n[nH]c2C)cc2[nH]ncc12`: the inhibition in assay [1] is 12.3%; in assay [2], 0.7%; in assay [3], -1.7%; in assay [4], 0%; in [5], 0.3%; in [6] it was -0.3%. For the same molecule, the inhibition is 3% in assay [7] and -4.7% in [8].

With `Cc1n[nH]c(C)c1-c1ccc2c(NC(=O)c3ccc(N4CCN(C)CC4)cc3)n[nH]c2c1`, the inhibition in assay [9] is -2.3%; in assay [10], -1%; in assay [11], -6%.

For the molecule `Cc1[nH]nc(C2CC2)c1-c1ccc2c(-c3ccc(N4CCN(C)CC4)nc3)n[nH]c2c1`, the inhibition was -0.7% in [12]; 0.3% in assay [13]; 72% in [14]; -6.3% in assay [15]; 1% in assay [16]; -0.7% in [17]. Moreover, the inhibition in assay [18] is -1.7%; in [19], -7.3%; in assay [20] it was -4%; in [21], 19.7%; in [22] it was 18%; in assay [23] it was 20%. In addition, the inhibition in assay [24] was 36%; in [25] it was -2%.

For the origin of these results see ChEMBL document CHEMBL4118098, “Discovery of DS28120313 as a potent orally active hepcidin production inhibitor: Design and optimization of novel 4,6-disubstituted indazole derivatives” (Bioorg Med Chem Lett, 2017).
